# Reference: patent US10441568B2, “Nitroxide radicals for the treatment of diseases of the respiratory tract” (priority 2015, dated 2019)
# Experiments:
# [1] = tested on: IL-13; experiment: IL-13 level in OVA asthma model; assay type: in vivo, BALB/c mice; conditions: OVA IP-Dex: dexamethasone intraperitoneal (1 mg/kg); lung tissue (table title)
# Experimental: (§1) All experimental procedures were carried out in accordance with the NIH Guidelines for the Care and Use of Laboratory Animals. Specific pathogen-free (SPF) male BALB/c mice (6-7 weeks of age, 18-22 grams), routinely screened serologically for relevant respiratory pathogens, were maintained in an animal housing facility for 1 week before use and given access to food and water ad libitum. Animals were randomly assigned to the indicated experimental groups, and sensitized with two intraperitoneal (IP) injections (20 μg ovalbumin (OVA) emulsified in 2 mg aluminum hydroxide (an adjuvant) in 200 μl phosphate buffer saline (PBS), pH 7.4), on days 1 and 10.
# (§2) After another week, the animals were challenged by exposure to ovalbumin (OVA) aerosol (1%, w/v, in PBS) for 30 minutes each day on days 17, 18 and 19, in order to elicit an inflammatory reaction in the lungs characterized by airway hyper-responsiveness (AHR), an influx of inflammatory cells (particularly eosinophils), and increased pulmonary levels of various cytokines and transforming growth factors, protein nitration and lipid peroxidation.
# (§3) Bronchoalveolar lavage (BAL) fluid (also referred to herein as “BALf”) and bronchial submucosal inflammation are characteristic features of asthma. Mice were euthanized with an overdose of 50 mg/kg pentobarbital and ice-cold phosphate buffer saline (PBS) (0.6 ml) was instilled into the lungs. BAL fluid was obtained by three aspirations via tracheal cannulation, centrifuged, and the supernatant collected and stored at −70° C. Cell pellets were re-suspended in PBS and 100 μl aliquots placed onto slides and centrifuged (200 g, 4° C., 10 minutes) in a cytospin machine. Induction of oxidative stress was evaluated using a 2′,7′-dichlorofluorescein fluorescence assay, and total IgE, IgG2a, panel of cytokines, transforming growth factors, collagen, protein nitration and lipid peroxidation were measured using commercial kits according to the manufacturer's recommendations. A Sircol™ collagen assay kit was obtained from Biocolor Life Sciences Assays, a protein nitration assay kit was obtained from Abcam, and other assay kits were obtained from PeproTech Asia.
# The efficacy of oral administration of 3-CP (1 weight percent in chow) during the sensitization period and/or challenge period was then compared to IP injection (˜300 mg/kg, 0.5 hour before the OVA challenge) or intranasal instillation (˜150 mg/kg, 0.5 hour before the OVA and 6 hours later) of 3-CP, as well as to dexamethasone treatment (1 mg/kg, 3 daily IP injections, 0.5 hour prior to the challenge with OVA aerosol).
# In order to assess the effect of 3-CP on inflammatory signaling pathways, […] to procedures described hereinabove, upon oral, intranasal or IP administration of 3-CP.
# [2] = tested on: ovalbumin-induced murine model of asthma; experiment: Lung resistance / airway hyper-responsiveness to methacholine in OVA asthma model; assay type: in vivo, BALB/c mice; conditions: oral
# Experimental: as §1, §2
# (§4) The features of allergic inflammation typically reached their peak a day or two after the final exposure. Mice were then subjected to one of the following treatments: (i) sham-sensitization plus challenge with PBS; (ii) positive control-sensitization plus challenge with OVA; (iii) sensitization plus challenge with OVA and various indicated treatments (e.g., with nitroxide or dexamethasone), including different modes (oral, IP, intranasal, inhalation), time windows (sensitization stage, challenge stage, both stages and after the last challenge), and doses of nitroxide administration.
# One day after the final challenge, respiratory activity and airway hyper-responsiveness (AHR) of experimental animals were evaluated. Whole body plethysmographs for enhanced pause (Penh) measurements are often used for assessment of AHR. However, critics have questioned the validity of Penh measurements, which supposedly measure airway obstruction of live non-sedated mice, stating that it is likely to measure the distress of the animal rather than actual obstruction. […] In brief, mice were sedated with an intraperitoneal (IP) injection of xylazine hydrochloride and anaesthetized with IP injection of pentobarbital. Subsequently, the animals were tracheostomized using an 18 gauge cannula, ventilated with a FlexiVent™ apparatus (SCIREQ), and muscle paralysis was induced with pancuronium bromide. The mice were ventilated in a quasi-sinusoidal fashion with the following settings: a tidal volume of 10 ml/kg, maximum inflation pressure of […] (30 cm H2O), a positive end expiratory pressure (PEEP) of 3 millibar and a frequency of 150 per minute. Following an equilibration period of 3 minutes of tidal ventilation, two lung inflations to a transrespiratory pressure of 2.5 millibar were performed and baseline measurements were taken. Airway hyper-responsiveness (AHR) was determined by aerosolizing increasing concentrations of methacholine. After baseline determination of airway resistance, mice were challenged with 0 to 64 mg/mL methacholine nebulized directly into the ventilatory circuit using an AeroNeb™ Lab nebulizer system (SCIREQ). Two models of respiratory mechanics were used to assess lung resistance: a linear 1st-order single compartment model and a constant-phase model. All data points were collected with FlexiVent™ software (SCIREQ). […]
# [3] = tested on: ovalbumin-induced murine model of asthma; experiment: Inflammatory cell counts in BAL fluid in OVA asthma model; assay type: in vivo, BALB/c mice
# Experimental: as §1, §2, §4, §3
# (§5) Control and experimental groups contained 10 mice each. The effects of the nitroxides were investigated by feeding the mice ad libitum a diet of nitroxide-containing chow (1 weight percent) during both ovalbumin (OVA)-induced sensitization and challenging periods (days −2-19), during the sensitization period (days −2-11) or challenge period (days 13-19). Nitroxide-containing chow were prepared by dissolving 500 grams chow in a minimum volume of water containing 5 grams nitroxide and 5 grams commercial chicken soup powder, preparing the chow and drying it at 37° C. (animals were reluctant to eat nitroxide-containing chow until chicken soup powder was added).
# 3-CP was also administered using 3 daily intraperitoneal (IP) injections (200 μl, 0.15 M, ˜300 mg/kg) 0.5 hour prior to the challenge with OVA aerosol, or by nasal instillation (50 μl, 0.3 M, ˜150 mg/kg) twice a day 0.5 hour prior to the challenge with OVA aerosol and 6 hours later without exceeding its maximally tolerated dose, which has been previously established to be 300-500 mg/kg. Both 3-CP and TPL were non-toxic when administered orally or via IP injection to untreated OVA-challenged mice for 22 days. […]
# [4] = Toxicity / maximally tolerated dose in mice; assay type: in vivo; conditions: administered orally or via IP injection to untreated OVA-challenged mice for 22 days
# Experimental: (§6) 3-CP was also administered using 3 daily intraperitoneal (IP) injections (200 μl, 0.15 M, ˜300 mg/kg) 0.5 hour prior to the challenge with OVA aerosol, or by nasal instillation (50 μl, 0.3 M, ˜150 mg/kg) twice a day 0.5 hour prior to the challenge with OVA aerosol and 6 hours later without exceeding its maximally tolerated dose, which has been previously established to be 300-500 mg/kg. Both 3-CP and TPL were non-toxic when administered orally or via IP injection to untreated OVA-challenged mice for 22 days.
# [5] = Nitroxide concentration measurement by EPR in mouse blood and tissue; assay type: in vivo; conditions: mice
# Experimental: Electron paramagnetic resonance (EPR) spectroscopy was used to determine residual levels of nitroxide in mouse tissue. Blood samples or tissue samples were diluted with 0.5 ml phosphate buffer (40 mM, pH 7.4) or water, inserted into a flexible capillary placed in a quartz tube installed within the EPR spectrometer cavity and assayed for residual nitroxide. A similar procedure was used to determine the residual nitroxide in tissue homogenates of various organs, which were corrected for blood contamination spectrophotometrically by following the absorption of oxyhemoglobin at 400-600 nm. Measured EPR signals were compared to those of a nitroxide standard solution.
# In order to determine total hydroxylamine and nitroxide concentrations, 2 mM K3Fe(CN)6 was added to samples in order to oxidize hydroxylamines to the respective nitroxide, and the nitroxide level was determined by EPR spectroscopy as described hereinabove.
# as §5, §6
# [6] = Water-solubility; conditions: compared with 3-CP, data not shown
# [7] = Nitroxide concentration measurement by EPR in mouse blood and tissue; assay type: in vivo; conditions: mice fed chow with 0.7 weight percent 3-CPT, FIG. 12
structure (smiles),measurement,setting,value
"C[C@@H]1C[C@H]2[C@@H]3CCC4=CC(=O)C=C[C@]4(C)[C@@]3(F)[C@@H](O)C[C@]2(C)[C@@]1(O)C(=O)CO [dexamethasone, Dexamethasone, reference compound]",IL-13 level,[1],1.80 ng/mg
"CC1(C)CC(O)CC(C)(C)N1[O] [TPL, 4-Hydroxy-2,2,6,6-tetramethyl-piperidin-1-oxyl, reference compound]",effect on methacholine-induced increase in lung resistance,"[2]; 1 weight percent in chow, FIG. 3",suppressed methacholine-induced increase in lung resistance
same,effect on OVA-induced increase in total inflammatory cell and eosinophil counts in BAL fluid,"[3]; oral, 1 weight percent in chow, FIG. 4",attenuated the increase in total inflammatory cell counts and eosinophil counts
same,toxicity,[4],non-toxic
same,residual concentration of the respective hydroxylamine compared with the nitroxide,[5]; data not shown,higher than those of the therapeutically active nitroxide free radical
same,residual concentration of nitroxide in blood,"[5]; oral administration (1 weight percent nitroxide in chow), FIG. 1",detectable levels
"CC1(C)C=C(C(N)=O)C(C)(C)N1[O] [3-CPT, 3-carbamoyl-2,2,5,5-tetramethyl-3-pyrrolin-1-oxyl]",effect on methacholine-induced lung resistance,"[2]; 0.7 weight percent 3-CPT in chow, FIG. 14","reduced methacholine-induced lung resistance, albeit to a considerably lesser degree than 3-CP"
same,inhibiting increases in inflammatory cell levels (especially eosinophil levels) in asthmatic animals,"[3]; 3-CPT oral (0.7 weight percent in chow) or intraperitoneal (300 mg/kg), FIG. 13",effective
same,effect on OVA-induced increase of total cell counts in BAL fluid,"[3]; oral, 0.7 weight percent 3-CPT in chow, FIG. 13",effective in reversing OVA-induced increase of total cell counts
same,water-solubility,[6],lower water-solubility than 3-CP
same,reduction to the respective hydroxylamine in the blood,[7],most of the 3-CPT in the blood was reduced to the respective hydroxylamine
